Measured values from patent publication US11083717B2, “Compositions and methods for drug sensitization of parasites” (The Texas A&M University System, priority 2015, dated 2021).
In brackets after ≈: the same amount, converted by molar mass. Where two headings read alike, the source gives them in different places.

System: Cryptosporidium parvum (CP)
Assay: Cell culture model of Cryptosporidium parvum infection in HCT-8 cells, real-time qRT-PCR
Type: cell-based
Details: Cryptosporidium parvum
Outline: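 HCT-8 monolayers were infected with C. parvum Iowa oocysts (1.5×10^4/well) for 3 h, then compounds were added after medium exchange and cells were incubated 41 h more (44 h total, 37 °C). Parasite Cp18S rRNA was measured by one-step SYBR qRT-PCR of lysates, normalized to host Hs18S, and % inhibition at the stated µM was derived from a standard curve.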

CNC(=O)C(C)c1ccc(Oc2nc3ccc(Cl)cc3s2)cc1 (centres unmarked) [NZ-369, 2-{4-[(6-chloro-1,3-benzothiazol-2-yl)oxy]phenyl}-N-methylpropanamide]
MIC50 (44 h, CP in HCT-8 cells, 44 h infection, 50% reduction of parasite growth vs control, NA: not active, read-out: MIC50): 50 to 80 nM (≈ 0.0173 to 0.0277 µg/mL)
MIC50 (read-out: MIC50 (nM) (CP)): 80 nM (≈ 0.0277 µg/mL)
